Measurements from patent publication US6521407B1, “Methods for determining chemosensitivity of cancer cells based upon expression of negative and positive signal transduction factors” (TheRyte Limited, priority 1998, dated 2003).

Tests used:
Type in all cases: cell-based, human
RT112 = assay: Clonogenic cell survival assay (D0.1), RT112; conditions: RT112, p53 mutant, undetectable p21; for Absolute D0.1: dose reducing clonogenic survival to 10% of control, 14 days exposure
Protocol: (§1) The growth characteristics clonogenic assay procedures of the 11 human in vitro cell lines used in this analysis have already been reported e.g. in Britten R. A. and Warenius H., Eur. J. Canc. 29A, 1315-1320 (1993). The cell lines are listed, with their histological classification in Table 4. All are well established; many having been growing in vitro for several years. Cell lines were either donations or purchased by our laboratories. On receipt all were grown for 5 passages to provide sufficient cells for batch storage in liquid nitrogen. During this period contamination was excluded by at least one passage in antibiotic free medium and mycoplasma testing was carried out on all lines. For clonogenic assays, cells were taken from a designated primary liquid nitrogen batch and grown for 3-6 passages until there were sufficient well-growing cells. Further batches from these cells were frozen in liquid nitrogen. Cells were routinely maintained in DMEM medium. All lines were supplemented with 10% heat-inactivated foetal calf serum (HIFCS). […] The D0.1 values were obtained by several independent clonogenic assays and the data fitted by linear regression analysis. The clonogenic assays were repeated until statistically satisfactory fits were achieved on linear regression. The D0.1 values were obtained by interpolation of the linear regression lines. The cytotoxic drug D0.1 values have been normalised and expressed as relative D0.1 values, to enable the relative sensitivity of each cell to each of the drugs to be compared.
(§2) In order to assay CDDP sensitivity 10^2-10^5 cells were plated in 3 ml of Ham's F12 medium supplemented with 10% FCS in 6 well plates and incubated at 37° C. in an atmosphere of 5% CO2 for 8 hours. […] The medium was then removed, the cells were fixed in 70% ethanol and stained with 10% Giemsa and colonies of >100 cells counted. […] CDDP cell survival was determined at the 10% clonogenic cell survival level (D0.1) by interpolation of the fitted regression curve. […]

HRT18 = assay: Clonogenic cell survival assay (D0.1), HRT18; conditions: HRT18, p53 wild-type, detectable p21; for Absolute D0.1: dose reducing clonogenic survival to 10% of control, 14 days exposure
Protocol: as §1, §2

HT29 = assay: Clonogenic cell survival assay (D0.1), HT29; conditions: HT29, p53 mutant, undetectable p21; for Absolute D0.1: dose reducing clonogenic survival to 10% of control, 14 days exposure
Protocol: as §1, §2

MGHU1 = assay: Clonogenic cell survival assay (D0.1), MGHU1; conditions: MGHU1, p53 wild-type, detectable p21; for Absolute D0.1: dose reducing clonogenic survival to 10% of control, 14 days exposure
Protocol: as §1, §2

I407 = assay: Clonogenic cell survival assay (D0.1), I407; conditions: 1407 (I407), p53 wild-type, detectable p21; for Absolute D0.1: dose reducing clonogenic survival to 10% of control, 14 days exposure
Protocol: as §1, §2

MEL2 = assay: Clonogenic cell survival assay (D0.1), MEL2; conditions: MEL2, p53 mutant, undetectable p21; for Absolute D0.1: dose reducing clonogenic survival to 10% of control, 14 days exposure
Protocol: as §1, §2

A431 = assay: Clonogenic cell survival assay (D0.1), A431; conditions: A431, p53 mutant, undetectable p21; for Absolute D0.1: dose reducing clonogenic survival to 10% of control, 14 days exposure
Protocol: as §1, §2

CORL23 = assay: Clonogenic cell survival assay (D0.1), CORL23; conditions: CORL23, p53 wild-type, detectable p21; for Absolute D0.1: dose reducing clonogenic survival to 10% of control, 14 days exposure
Protocol: as §1, §2

2780 = assay: Clonogenic cell survival assay (D0.1), 2780; conditions: 2780, p53 wild-type, detectable p21; for Absolute D0.1: dose reducing clonogenic survival to 10% of control, 14 days exposure
Protocol: as §1, §2

OAW42 = assay: Clonogenic cell survival assay (D0.1), OAW42; conditions: OAW42, p53 wild-type, detectable p21
Protocol: (§3) The growth characteristics clonogenic assay procedures of the 11 human in vitro cell lines used in this analysis have already been reported e.g. in Britten R. A. and Warenius H., Eur. J. Canc. 29A, 1315-1320 (1993). The cell lines are listed, with their histological classification in Table 4. All are well established; many having been growing in vitro for several years. Cell lines were either donations or purchased by our laboratories. On receipt all were grown for 5 passages to provide sufficient cells for batch storage in liquid nitrogen. During this period contamination was excluded by at least one passage in antibiotic free medium and mycoplasma testing was carried out on all lines. For clonogenic assays, cells were taken from a designated primary liquid nitrogen batch and grown for 3-6 passages until there were sufficient well-growing cells. Further batches from these cells were frozen in liquid nitrogen. Cells were routinely maintained in DMEM medium. All lines were supplemented with 10% heat-inactivated foetal calf serum (HIFCS). […]
(§4) In order to assay CDDP sensitivity 10^2-10^5 cells were plated in 3 ml of Ham's F12 medium supplemented with 10% FCS in 6 well plates and incubated at 37° C. in an atmosphere of 5% CO2 for 8 hours. […] The medium was then removed, the cells were fixed in 70% ethanol and stained with 10% Giemsa and colonies of >100 cells counted.

MOR = assay: Clonogenic cell survival assay (D0.1), MOR; conditions: p53 mutant
Protocol: as §3, §4

[1] = absolute D0.1 divided by mean D0.1 of the drug

SMILES	Absolute D0.1 (RT112)	Absolute D0.1 (HRT18)	Absolute D0.1 (HT29)	Absolute D0.1 (MGHU1)	Absolute D0.1 (I407)	Absolute D0.1 (MEL2)	Absolute D0.1 (A431)	Absolute D0.1 (CORL23)	Absolute D0.1 2780	also measured
CC(=O)O[C@H]1C(=O)[C@@]2(C)[C@H]([C@H](OC(=O)c3ccccc3)[C@]3(O)C[C@H](OC(=O)[C@H](O)[C@@H](NC(=O)c4ccccc4)c4ccccc4)C(C)=C1C3(C)C)[C@]1(OC(C)=O)CO[C@@H]1C[C@@H]2O [Paclitaxel (TAXOL), Paclitaxel]	1.523	10.415	1.106	1.144	1.504	0.57	0.823	0.497	2.113	–
N.N.[Cl][Pt][Cl] [CDDP, cis-diamminedichloroplatinum]	0.237	0.864	0.632	0.4494	0.06	0.457	0.306	0.338	0.255	Relative D0.1 (RT112; [1]): 0.593; Relative D0.1 (OAW42; [1]): 0.27; Absolute D0.1 (OAW42; dose reducing clonogenic survival to 10% of control, 14 days exposure): 0.108; Relative D0.1 (HRT18; [1]): 2.16; Relative D0.1 (HT29; [1]): 1.58; Relative D0.1 (MGHU1; [1]): 1.235; Relative D0.1 (I407; [1]): 0.15; Relative D0.1 (MEL2; [1]): 1.143; Relative D0.1 (MOR; undetectable p21, absolute D0.1 divided by mean D0.1 of the drug): 1.573; Absolute D0.1 (MOR; undetectable p21, dose reducing clonogenic survival to 10% of control, 14 days exposure): 0.629; Relative D0.1 (A431; [1]): 0.765; Relative D0.1 (CORL23; [1]): 0.845; Relative D0.1 2780; [1]: 0.637
